# Laboratory results published in the supplement of paper PMC10307832.
# Tests used:
# Assay in all cases: relative viability (nuclei count vs DMSO), 5 days (fraction); higher = more cells survive
# BGJ398 + Pemetrexed = compound: CCN1CCN(c2ccc(Nc3cc(N(C)C(=O)Nc4c(Cl)c(OC)cc(OC)c4Cl)ncn3)cc2)CC1 [BGJ398] + Nc1nc2[nH]cc(CCc3ccc(C(=O)N[C@@H](CCC(=O)O)C(=O)O)cc3)c2c(=O)[nH]1 [Pemetrexed] (partner 0.2 µM)
# How it was run: (§1)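 Lung cancer cell lines in 1536-well plates got either a single drug or a fixed anchor-drug dose together with five library-drug doses (not always all listed) in √10 steps, by pin tool, on the day after seeding. Nuclei were counted after 5 days, and relative viability is the treated-to-vehicle ratio of nuclei counts. Values are medians of duplicate plates.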
# [1] = compound: C1=CC2=NC=CN=C2C=C1/C=C/3\C(=O)NC(=O)S3 + CC(=O)c1c(C)c2cnc(Nc3ccc(N4CCNCC4)cn3)nc2n(C2CCCC2)c1=O [Palbociclib] (partner 0.5 µM)
# How it was run: as §1
# [2] = compound: C1=CC2=NC=CN=C2C=C1/C=C/3\C(=O)NC(=O)S3 + Cc1nc(NC(=O)N2CCC[C@H]2C(N)=O)sc1-c1ccnc(C(C)(C)C(F)(F)F)c1 [Alpelisib] (partner 2 µM)
# How it was run: as §1
# BGJ398 + Pictilisib = compound: CCN1CCN(c2ccc(Nc3cc(N(C)C(=O)Nc4c(Cl)c(OC)cc(OC)c4Cl)ncn3)cc2)CC1 [BGJ398] + CS(=O)(=O)N1CCN(Cc2cc3nc(-c4cccc5[nH]ncc45)nc(N4CCOCC4)c3s2)CC1 [Pictilisib] (partner 1 µM)
# How it was run: as §1
Cell Line,relative viability (BGJ398 + Pemetrexed; first compound 0.01 µM),relative viability (BGJ398 + Pemetrexed; first compound 0.03162 µM),relative viability (BGJ398 + Pemetrexed; first compound 0.1 µM),relative viability (BGJ398 + Pemetrexed; first compound 0.3162 µM),relative viability (BGJ398 + Pemetrexed; first compound 1 µM),relative viability ([1]; first compound 0.02 µM),relative viability ([1]; first compound 0.06325 µM),relative viability ([1]; first compound 0.2 µM),relative viability ([1]; first compound 0.6325 µM),relative viability ([1]; first compound 2 µM),relative viability ([2]; first compound 0.06325 µM),relative viability ([2]; first compound 0.2 µM),relative viability ([2]; first compound 0.6325 µM),relative viability ([2]; first compound 2 µM),relative viability (BGJ398 + Pictilisib; first compound 0.01 µM),relative viability (BGJ398 + Pictilisib; first compound 0.03162 µM),relative viability (BGJ398 + Pictilisib; first compound 0.1 µM),relative viability (BGJ398 + Pictilisib; first compound 0.3162 µM),relative viability (BGJ398 + Pictilisib; first compound 1 µM),relative viability ([2]; first compound 0.02 µM)
NCI-H2342,0.742,0.775,0.801,0.773,0.755,0.508,0.524,0.547,0.484,0.498,,,,,,,,,,
SK-MES-1,0.84,0.999,0.888,1.02,0.898,0.328,0.305,0.344,0.338,0.313,0.987,0.86,0.868,0.802,0.401,0.415,0.431,0.383,0.335,
HCC-366,0.161,0.168,0.163,0.172,0.132,0.355,,0.357,0.366,0.374,0.488,0.432,0.361,0.259,0.0862,0.146,0.137,0.277,0.0758,0.391
201T,0.343,0.339,0.338,0.329,0.334,0.341,0.347,0.349,0.358,0.343,1.05,1.01,0.978,0.877,0.804,0.659,0.641,0.652,0.559,0.955
HCC-827,0.254,,0.277,0.184,0.272,0.616,0.436,0.425,0.51,0.473,0.947,1.04,0.925,0.911,0.961,0.696,0.977,0.817,1.03,1.05
NCI-H647,0.179,0.16,0.19,0.201,0.185,0.314,0.488,0.41,0.363,0.342,1.89,1.28,1.06,1.14,0.406,0.511,0.38,0.401,0.29,0.865
NCI-H2023,0.279,0.227,0.248,0.252,0.242,0.405,0.408,0.314,0.337,0.27,0.609,0.587,0.606,0.511,0.226,0.219,0.173,0.244,0.16,0.57
NCI-H520,0.691,0.532,0.531,0.341,0.311,0.211,0.246,0.251,0.181,0.201,0.948,0.822,0.877,1.01,0.239,0.257,0.209,0.169,0.194,0.866
RERF-LC-KJ,0.436,0.431,0.37,0.49,0.408,1.04,1.12,1.05,0.994,1.15,0.816,0.832,0.786,0.788,0.598,0.663,0.515,0.583,0.615,0.633
A-427,1.03,1.08,0.958,0.924,0.918,0.498,0.561,0.507,0.524,0.533,1.08,1.1,1.07,1.12,0.622,0.644,0.506,0.334,0.158,1.06
NCI-H441,,0.234,0.243,0.251,0.288,0.195,0.271,0.24,0.193,0.112,0.844,,0.876,0.636,0.416,0.496,0.558,0.54,0.487,0.714
NCI-H1703,,,,,,,,,,,0.306,0.296,0.386,0.267,0.233,0.198,0.21,0.218,0.242,0.362
NCI-H1792,0.723,0.791,0.831,0.743,0.749,0.652,0.471,0.663,0.595,0.425,0.501,0.644,0.658,0.657,0.229,0.32,0.26,0.238,0.138,0.62
Calu-6,,,,,,,,,,,1.11,1.04,0.902,0.845,0.848,0.987,0.935,0.898,0.991,1.02
SK-LU-1,0.866,1,1.05,0.936,1.07,0.376,0.367,0.374,0.403,0.411,1.5,1.21,1.05,0.968,0.547,0.61,0.497,0.531,0.424,1.01
